# Measured values: patent US9114149B2, “[CU(thp)4]n[X]-n compounds for the treatment of a broad range of human solid tumors, including refractory tumors” (Universita Degli Studi Di Padova, priority 2011, dated 2015)
# Experiments:
# H157 = experiment: MTT cytotoxicity, H157 (lung); type: cell-based, human; details: MTT test, 72 hrs
# Description: (§1) The in vitro antitumor activity of CP had been deeply evaluated in several human cancer cell lines by in vitro cytotoxicity assays. CP cytotoxicity has been detected in a large panel of human cell lines derived from a wide variety of solid tumors, including refractory tumors. In Table 1, the cytotoxicity parameters IC50 (that is the median growth inhibitory concentrations calculated from dose-survival curves via MTT test) are tabulated.
# (§2) Cell lines representative of lung (H157, U1810, U1285, Calu-1), pancreas (MIA PaCa-2, BxPC-3, AsPC-1, Capan-1), liver (Huh-7, Hep 3B, SK-Hep-1), oesophagus (OE33, OE21), oesophagus/gastric cardia (OE19), stomach (BGC-823, AGS), colon (HCT-116, T84, COLO 205), breast (MDA-MB-231, SK-BR-3), cervix (CaSki, C-33 A) ovarian (A2780, SK-OV-3, IGROV1), prostate (LnCaP, PC-3) cancers along with melanoma (MEWO, G361, C-32), neuroblastoma (SH-SY5Y, SK-N-AS, IMR-32) and osteosarcoma (U-2 OS, MG-63) have been treated with increasing concentration of CP for 72 hrs.
# U1285 = experiment: MTT cytotoxicity, U1285 (lung); type: cell-based, human; details: MTT test, 72 hrs
# Description: as §1, §2
# Calu-1 = experiment: MTT cytotoxicity, Calu-1 (lung); type: cell-based, human; details: MTT test, 72 hrs
# Description: as §1, §2
# MIA PaCa-2 = experiment: MTT cytotoxicity, MIA PaCa-2 (pancreas); type: cell-based, human; details: MTT test, 72 hrs
# Description: as §1, §2
# BxPC-3 = experiment: MTT cytotoxicity, BxPC-3 (pancreas); type: cell-based, human; details: MTT test, 72 hrs
# Description: as §1, §2
# AsPC-1 = experiment: MTT cytotoxicity, AsPC-1 (pancreas); type: cell-based, human; details: MTT test, 72 hrs
# Description: as §1, §2
# Hep 3B = experiment: MTT cytotoxicity, Hep 3B (liver); type: cell-based, human; details: MTT test, 72 hrs
# Description: as §1, §2
# OE33 = experiment: MTT cytotoxicity, OE33 (oesophagus); type: cell-based, human; details: MTT test, 72 hrs
# Description: as §1, §2
# OE21 = experiment: MTT cytotoxicity, OE21 (oesophagus); type: cell-based, human; details: MTT test, 72 hrs
# Description: as §1, §2
# OE19 = experiment: MTT cytotoxicity, OE19 (oesophagus/gastric cardia); type: cell-based, human; details: MTT test, 72 hrs
# Description: as §1, §2
# BGC-823 = experiment: MTT cytotoxicity, BGC-823 (stomach); type: cell-based, human; details: MTT test, 72 hrs
# Description: as §1, §2
# AGS = experiment: MTT cytotoxicity, AGS (stomach); type: cell-based, human; details: MTT test, 72 hrs
# Description: as §1, §2
# HCT-116 = experiment: MTT cytotoxicity, HCT-116 (colon); type: cell-based, human; details: MTT test, 72 hrs
# Description: as §1, §2
# T84 = experiment: MTT cytotoxicity, T84 (colon); type: cell-based, human; details: MTT test, 72 hrs
# Description: as §1, §2
# COLO 205 = experiment: MTT cytotoxicity, COLO 205 (colon); type: cell-based, human; details: MTT test, 72 hrs
# Description: as §1, §2
# SH-SY5Y = experiment: MTT cytotoxicity, SH-SY5Y (brain); type: cell-based, human; details: MTT test, 72 hrs
# SK-N-AS = experiment: MTT cytotoxicity, SK-N-AS (brain); type: cell-based, human; details: MTT test, 72 hrs
# MEWO = experiment: MTT cytotoxicity, MEWO (skin); type: cell-based, human; details: MTT test, 72 hrs
# Description: as §1, §2
# G361 = experiment: MTT cytotoxicity, G361 (skin); type: cell-based, human; details: MTT test, 72 hrs
# Description: as §1, §2
# U-2 OS = experiment: MTT cytotoxicity, U-2 OS (bone); type: cell-based, human; details: MTT test, 72 hrs
# Description: as §1, §2
# MG-63 = experiment: MTT cytotoxicity, MG-63 (bone); type: cell-based, human; details: MTT test, 72 hrs
# Description: as §1, §2
# SK-BR-3 = experiment: MTT cytotoxicity, SK-BR-3 (breast); type: cell-based, human; details: MTT test, 72 hrs
# Description: as §1, §2
# C-33 A = experiment: MTT cytotoxicity, C-33 A (cervix); type: cell-based, human; details: MTT test, 72 hrs
# Description: as §1, §2
# A2780 = experiment: MTT cytotoxicity, A2780 (ovary); type: cell-based, human; details: MTT test, 72 hrs
# Description: as §1, §2
# SK-OV-3 = experiment: MTT cytotoxicity, SK-OV-3 (ovary); type: cell-based, human; details: MTT test, 72 hrs
# Description: as §1, §2
# IGROV1 = experiment: MTT cytotoxicity, IGROV1 (ovary); type: cell-based, human; details: MTT test, 72 hrs
# Description: as §1, §2
# LNCap = experiment: MTT cytotoxicity, LNCap (prostate); type: cell-based, human; details: MTT test, 72 hrs
# Description: as §1, §2
# PC-3 = experiment: MTT cytotoxicity, PC-3 (prostate); type: cell-based, human; details: MTT test, 72 hrs
# Description: as §1, §2
# [1] = tested on: human ovarian adenocarcinoma cells sensitive (A2780); experiment: Cross resistance MTT test, A2780 (CDDP sensitive); type: cell-based; details: 72 h, probit analysis
# [2] = tested on: human ovarian adenocarcinoma cells resistant (A2780cisR) to CDDP; experiment: Cross resistance MTT test, A2780cisR (CDDP resistant); type: cell-based; details: for IC50: A2780cisR (CDDP resistant), MTT test, 72 h, probit analysis; for R.F. (Resistant factor): IC50 resistant/parent line: A2780cisR / A2780
# [3] = tested on: human osteosarcoma cells sensitive (U-2 OS); experiment: Cross resistance MTT test, U-2 OS (CDDP sensitive); type: cell-based; details: 72 h, probit analysis
# [4] = tested on: human osteosarcoma cells resistant (U-2 OS/Pt) to CDDP; experiment: Cross resistance MTT test, U-2 OS Pt (CDDP resistant); type: cell-based; details: for IC50: U-2 OS Pt (CDDP resistant), MTT test, 72 h, probit analysis
# [5] = tested on: human lung (MRC-5) fibroblasts; experiment: Cytotoxicity towards human non-tumor cells, MRC-5; type: cell-based; details: MRC-5 human lung fibroblasts (non-tumor); MTT test, 72 hrs
# [6] = tested on: human foreskin (HFFF2) fibroblasts; experiment: Cytotoxicity towards human non-tumor cells, HFFF2; type: cell-based; details: MTT test, 72 hrs
# [7] = tested on: Lewis lung carcinoma (LLC); experiment: Advanced-stage treatment (1) of LLC-bearing mice; type: in vivo, C57BL mice; details: for Average tumor weight (mean ± S.D.) / Inhibition of tumor growth: advanced-stage (1); for Average tumor weight (mean ± S.D.): day 15; for Inhibition of tumor growth: day 15, referred to control; for adverse effects / body weight changes during therapy: advanced-stage treatments (1) and (2), FIGS. 2 and 3
# Description: Body weight was measured at day 1 and every two days from day 7 and was taken as a parameter of systemic toxicity. The X axis indicates the days after transplantation whereas the Y axis indicates the percentage of body weight changes. […] The error bars indicate the SD.
# The in vivo antitumor activity of CP in LLC tumor model has been further investigated by means of other protocols, such as advanced-stage treatment (1), and advanced-stage treatment (2). For upstaged or advanced stage disease, LLC tumors were allowed to establish and grow to visible (advanced-stage treatment 1) and palpable (advanced-stage treatment 2) size before the start of chemotherapy. The results shown in Table 8 and 9, attested that CP was efficacious even at the lowest dose schedules.
# C57BL mice = experiment: Maximum Tolerated Dose in C57BL mice; details: single ip administration, <20% weight loss and no animal death
# [8] = 1.5 mg/kg i.p. daily from day 7
compound,measurement,setting,value
"N.N.[Cl][Pt][Cl] [CDDP, cis-diamminodichloro platinum(II)]",IC50,H157,5.99 ± 2.71 µM
same,IC50,U1285,4.37 ± 1.06 µM
same,IC50,Calu-1,9.65 ± 2.13 µM
same,IC50,MIA PaCa-2,25.9 ± 2.75 µM
same,IC50,BxPC-3,11.5 ± 2.51 µM
same,IC50,AsPC-1,29.5 ± 1.57 µM
same,IC50,Hep 3B,6.15 ± 1.48 µM
same,IC50,OE33,6.87 ± 1.06 µM
same,IC50,OE21,3.76 ± 1.08 µM
same,IC50,OE19,7.45 ± 1.37 µM
same,IC50,BGC-823,3.21 ± 1 µM
same,IC50,AGS,6.33 ± 1.79 µM
same,IC50,HCT-116,8.26 ± 1.11 µM
same,IC50,T84,7.67 ± 1.34 µM
same,IC50,COLO 205,33.1 ± 2.68 µM
same,IC50,SH-SY5Y,5.16 ± 1.23 µM
same,IC50,SK-N-AS,18.1 ± 1.58 µM
same,IC50,MEWO,6.76 ± 1.47 µM
same,IC50,G361,1.32 ± 1.01 µM
same,IC50,U-2 OS,5.15 ± 1.94 µM
same,IC50,MG-63,5.76 ± 1.01 µM
same,IC50,SK-BR-3,5.12 ± 1.51 µM
same,IC50,C-33 A,7.42 ± 1.98 µM
same,IC50,A2780,1.25 ± 1.01 µM
same,IC50,SK-OV-3,3.04 ± 0.95 µM
same,IC50,IGROV1,6.01 ± 1.73 µM
same,IC50,LNCap,1.08 ± 1.01 µM
same,IC50,PC-3,1.57 ± 1.13 µM
same,IC50,[1],2.43 ± 1.6 µM
same,IC50,[2],13.1 ± 2.3 µM
same,R.F. (Resistant factor),[2],5.3
same,IC50,[3],5.9 ± 1.4 µM
same,R.F. (Resistant factor),[4]; IC50 resistant/parent line: U-2 OS Pt / U-2 OS,2.5
same,IC50,[4],14.6 ± 1.3 µM
same,IC50,[5],19.2 ± 1.35 µM
same,IC50,[6],20.9 ± 2.33 µM
same,Average tumor weight (mean ± S.D.),[7]; [8],0.061 ± 0.03 g
same,Inhibition of tumor growth,[7]; [8],87.84%
same,adverse effects / body weight changes during therapy,[7],substantial weight loss
same,MTD (Maximum Tolerated Dose),C57BL mice,4.8 mg/kg
"F[P-](F)(F)(F)(F)F.OC[P+](CO)(CO)[Cu-3]([P+](CO)(CO)CO)([P+](CO)(CO)CO)[P+](CO)(CO)CO [CP, [Cu(thp)4][PF6]]",IC50,H157,1.51 ± 0.66 µM
same,IC50,U1285,0.87 ± 0.51 µM
same,IC50,Calu-1,0.91 ± 0.45 µM
same,IC50,MIA PaCa-2,2.45 ± 0.97 µM
same,IC50,BxPC-3,1.34 ± 1.11 µM
same,IC50,AsPC-1,1.55 ± 0.73 µM
same,IC50,Hep 3B,0.67 ± 0.47 µM
same,IC50,OE33,1.87 ± 0.59 µM
same,IC50,OE21,1.19 ± 0.72 µM
same,IC50,OE19,1.66 ± 0.94 µM
same,IC50,BGC-823,1.08 ± 0.66 µM
same,IC50,AGS,1.14 ± 0.78 µM
same,IC50,HCT-116,0.46 ± 0.07 µM
same,IC50,T84,0.24 ± 0.04 µM
same,IC50,COLO 205,0.65 ± 0.03 µM
same,IC50,SH-SY5Y,0.66 ± 0.12 µM
same,IC50,SK-N-AS,0.94 ± 0.75 µM
same,IC50,MEWO,1.13 ± 0.74 µM
same,IC50,G361,0.98 ± 0.12 µM
same,IC50,U-2 OS,1.34 ± 0.92 µM
same,IC50,MG-63,1.43 ± 0.74 µM
same,IC50,SK-BR-3,1.89 ± 0.99 µM
same,IC50,C-33 A,3.26 ± 1.57 µM
same,IC50,A2780,0.99 ± 0.42 µM
same,IC50,SK-OV-3,0.88 ± 0.43 µM
same,IC50,IGROV1,0.91 ± 0.94 µM
same,IC50,LNCap,0.65 ± 0.87 µM
same,IC50,PC-3,0.98 ± 0.97 µM
same,IC50,[1],1.8 ± 0.4 µM
same,IC50,[2],2.1 ± 1.2 µM
same,R.F. (Resistant factor),[2],1.2
same,IC50,[3],3.1 ± 1.1 µM
same,IC50,[4],4.3 ± 1.1 µM
same,IC50,[5],33 ± 1.76 µM
same,IC50,[6],31.1 ± 3.48 µM
same,Average tumor weight (mean ± S.D.),[7]; 30 mg/kg i.p. daily from day 7,0.088 ± 0.03 g
same,Inhibition of tumor growth,[7]; 30 mg/kg i.p. daily from day 7,82.37%
same,Average tumor weight (mean ± S.D.),[7]; 50 mg/kg i.p. daily from day 7,0.071 ± 0.02 g
same,Inhibition of tumor growth,[7]; 50 mg/kg i.p. daily from day 7,85.85%
same,adverse effects / body weight changes during therapy,[7],did not induce any adverse effects
same,MTD (Maximum Tolerated Dose),C57BL mice,25.6 mg/kg
